# Results: patent US20220257774A1, “AROMATIC AMINE AR AHD BET TARGETING PROTEIN DEGRADATION CHIMERA COMPOUND AND USE” (HINOVA PHARMACEUTICALS INC., priority 2019, published 2022)
# Where two headings read alike, the source gives them in different places.
# What was measured:
# LNCaP/AR cells = assay: Inhibition of the proliferation of LNCap/AR cells (CCK-8); type: cell-based; details: read-out: LNCap/AR IC50
# Summary of the method: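 Proliferation was read by CCK-8 (OD 450 nm, 1 h) after six days of compound exposure. Cells were seeded at 1000 per well overnight, then dosed in duplicate over nine 3-fold steps with a top final concentration of 10 μM in 0.1% DMSO; IC50 was fitted from inhibition curves.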
# 22RV1 cells = assay: Inhibition of the proliferation of drug-resistant prostate cancer cell 22RV1 (CCK-8); type: cell-based; details: 22RV1 cells (enzalutamide-resistant), same method
# Summary of the method: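 22RV1 cells, 1000/well in RPMI1640 with 10% FBS, treated in duplicate with 9-point 3-fold dilutions from 10 μM (0.1% DMSO final). After 6 days at 37 °C, CCK-8 added for 1 h and OD450 read. IC50 from dose-response inhibition fit.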
# [1] = 144 h, LNCaP/AR cells, 6 days culture, CCK-8
# [2] = LNCaP/AR cells, 6 days culture, CCK-8
Structure (SMILES),IC50 (LNCaP/AR cells; [1]) [nM],IC50 (22RV1 cells; Homo sapiens) [nM],IC50 (LNCaP/AR cells; [2]) [nM],IC50 (22RV1 cells) [nM],"IC50 (LNCaP/AR cells; LNCaP/AR, 144 h) [nM]"
Cc1ccc(-c2c(C)noc2C)cc1N(C[C@H]1C[C@@H]1CNc1cc2c(cc1F)CN(C1CCC(=O)NC1=O)C2=O)c1ccc(C2(C#N)CC2)cc1 (stereo partly shown) [Compound 184],> 2000,> 2000,–,–,–
"Cc1ccc(-c2c(C)n[nH]c2C)cc1N(CCCCCOCC(=O)N[C@H](C(=O)N1C[C@H](O)C[C@H]1C(=O)N[C@@H](C)c1ccc(-c2scnc2C)cc1)C(C)(C)C)c1ccc(C#N)c(Cl)c1 [Compound 79, (2S,4R)-1-((S)-2-(2-((5-((3-chloro-4-cyanophenyl)(5-(3,5-dimethyl-1H-pyrazol-4-yl)-2-methylphenyl)amino)pentyl)oxy)acetylamino)-3,3-dimethylbutyryl)-4-hydroxy-N—((S)-1-(4-(4-methylthiazol-5-yl)phenyl)ethyl)pyrrolidinyl-2-formamide]",–,–,101 to 500,> 2000,–
"Cc1ccc(-c2c(C)noc2C)cc1N(CCCCNc1cc2c(cc1F)C(=O)N(C1CCC(=O)NC1=O)C2=O)c1ccc(C#N)c(Cl)c1 (stereo not shown) [Compound 164, 2-Chloro-4-((5-(3,5-dimethylisoxazol-4-yl)-2-methylphenyl)(4-((2-(2,6-dioxopiperidin-3)-6-fluoro-1,3-dioxyisoindolin-5-yl)amino)butyl)amino)benzonitrile]",–,> 2000,–,–,501 to 2000
"Cc1ccc(-c2c(C)noc2C)cc1N(CCC(C)CCNc1cc2c(cc1F)CN(C1CCC(=O)NC1=O)C2=O)c1ccc(C2(C#N)CC2)cc1 (stereo not shown) [Compound 190, 1-(4-((5-(3,5-dimethylisoxazol-4-yl)-2-methylphenyl)(5-((2-(2,6-dioxopiperidin-3-yl)-6-fluoro-3-oxoisoindolin-5-yl)amino)-3-methylpentanyl)amino)phenyl)cyclopropane-1-carbonitrile]",> 2000,> 2000,–,–,–
Cc1ccc(-c2c(C)noc2C)cc1N(CC1CN(C2CN(c3cc4c(cc3F)C(=O)N(C3CCC(=O)NC3=O)C4)C2)C1)c1ccc(C2(C#N)CC2)cc1 (stereo not shown) [Compound 158],–,–,< 100,< 100,–
"Cc1ccc(-c2c(C)noc2C)cc1N(CC1CCC(Nc2cc3c(cc2F)C(=O)N(C2CCC(=O)NC2=O)C3)CC1)c1ccc(C2(C#N)CC2)cc1 (stereo not shown) [Compound 115, 1-(4-((5-(3,5-Dimethylisoxazol-4-yl)-2-methylphenyl)((((1r,4r)-4-((2-(2,6-dioxopiperidin-3-yl)-6-fluoro-1-oxoisoindolin-5-yl)amino)cyclohexyl)methyl)amino)phenyl)cyclopropanecarbonitrile]",–,–,101 to 500,501 to 2000,–
Cc1ccc(-c2c(C)noc2C)cc1N(C[C@H]1C[C@@H]1CNc1cc2c(cc1F)C(=O)N(C1CCC(=O)NC1=O)C2=O)c1ccc(C2(C#N)CC2)cc1 (stereo partly shown) [Compound 181],> 2000,101 to 500,–,–,–
Cc1ccc(-c2c(C)noc2C)cc1N(CC1CN(c2cc3c(cc2F)CN(C2CCC(=O)NC2=O)C3=O)C1)c1ccc(C2(C#N)CC2)cc1 (stereo not shown) [Compound 155],> 2000,> 2000,–,–,–
"Cc1ccc(-c2c(C)noc2C)cc1N(CCC(C)CCNc1ccc2c(c1)C(=O)N(C1CCC(=O)NC1=O)C2=O)c1ccc(C2(C#N)CC2)cc1 (stereo not shown) [Compound 192, 1-(4-((5-(3,5-dimethylisoxazol-4-yl)-2-methylphenyl)(5-((2-(2,6-dioxopiperidin-3-yl)-1,3-dioxoisoindolin-5-yl)amino)-3-methylpentanyl)amino)phenyl)cyclopropane-1-carbonitrile]",501 to 2000,< 100,–,–,–
Cc1ccc(-c2c(C)noc2C)cc1N(C[C@H]1C[C@@H]1CNc1ccc2c(c1)C(=O)N(C1CCC(=O)NC1=O)C2)c1ccc(C2(C#N)CC2)cc1 (stereo partly shown) [Compound 186],> 2000,> 2000,–,–,–
"Cc1ccc(-c2c(C)noc2C)cc1N(CC1CCC(COc2ccc3c(c2)C(=O)N(C2CCC(=O)NC2=O)C3=O)CC1)c1ccc(C#N)c(Cl)c1 (stereo not shown) [Compound 104, 2-Chloro-4-((5-(3,5-dimethylisoxazol-4-yl)-2-methylphenyl)((1r,4r)-4-((2-(2,6-dioxopiperidin-3-yl)-1,3-dioxoisoindolin-5-yl)oxy)methyl)cyclohexyl)methyl)amino)benzonitrile]",–,–,501 to 2000,101 to 500,–
"Cc1ccc(-c2c(C)noc2C)cc1N(CC1CN(C2CCN(c3ccc4c(c3)CN(C3CCC(=O)NC3=O)C4=O)CC2)C1)c1ccc(C2(C#N)CC2)cc1 (stereo not shown) [Compound 76, 1-(4-((5-(3,5-dimethylisoxazol-4-yl)-2-methylphenyl)((1-(1-(2-(2,6-dioxopiperidin-3-yl)-1-oxoisoindolin-5-yl)piperidinyl-4-yl)azetidin-3-yl)methyl)amino)phenyl)cyclopropane-1-carbonitrile]",> 2000,> 2000,–,–,–
Cc1ccc(-c2c(C)noc2C)cc1N(CC1CN(C2CCN(c3ccc4c(c3)C(=O)N(C3CCC(=O)NC3=O)C4=O)CC2)C1)c1ccc(C2(C#N)CC2)cc1 (stereo not shown) [Compound 152],–,501 to 2000,–,–,> 2000

# Further lines, with some results ahead:
IC50 (LNCaP/AR cells; [1]) [nM],IC50 (22RV1 cells; Homo sapiens) [nM],IC50 (LNCaP/AR cells; [2]) [nM],IC50 (22RV1 cells) [nM],Structure (SMILES),"IC50 (LNCaP/AR cells; LNCaP/AR, 144 h) [nM]"
501 to 2000,101 to 500,–,–,"Cc1ccc(-c2c(C)noc2C)cc1N(CCN1CCN(c2ccc3c(c2)CN(C2CCC(=O)NC2=O)C3=O)CC1)c1ccc(C2(C#N)CC2)cc1 (stereo not shown) [Compound 65, 1-(4-((5-(3,5-dimethylisoxazol-4-yl)-2-methylphenyl)(2-(4-(2-(2,6-dioxopiperidin-3-yl)-1-oxoisoindolin-5-yl)piperazin-1-yl)ethyl)amino)phenyl)cyclopropane-1-nitrile]",–
101 to 500,< 100,–,–,"Cc1ccc(-c2c(C)noc2C)cc1N(CCCCNc1ccc2c(c1)C(=O)N(C1CCC(=O)NC1=O)C2=O)c1ccc(C2(C#N)CC2)cc1 (stereo not shown) [Compound 41, 1-(4-((5-(3,5-Dimethylisoxazol-4-yl)-2-methylphenyl)(4-((2-(2,6-dioxopiperidin-3-yl)-1,3-dioxoisoindolin-5-yl)amino)butyl)amino)phenyl)cyclopropane-1-nitrile]",–
101 to 500,> 2000,–,–,"Cc1ccc(-c2c(C)noc2C)cc1N(CCCOC1CN(c2ccc3c(c2)C(=O)N(C2CCC(=O)NC2=O)C3=O)C1)c1ccc(C2(C#N)CC2)cc1 (stereo not shown) [Compound 119, 1-(4-((5-(3,5-dimethylisoxazol-4-yl)-2-methylphenyl)(3-((1-(2-(2,6-dioxopiperidin-3-yl)-1,3-dioxoisoindolin-5-yl)azetidin-3-yl)oxy)propyl)amino)phenyl)cyclopropane-1-nitrile]",–
101 to 500,501 to 2000,–,–,"Cc1ccc(-c2c(C)noc2C)cc1N(CCCCNc1cc2c(cc1F)CN(C1CCC(=O)NC1=O)C2=O)c1ccc(C2(C#N)CC2)cc1 (stereo not shown) [Compound 42, 1-(4-((5-(3,5-Dimethylisoxazol-4-yl)-2-methylphenyl)(4-((2-(2,6-dioxopiperidin-3-yl)-6-fluoro-3-oxoisoindolin-5-yl)amino)butyl)amino)phenyl)cyclopropane-1-nitrile]",–
101 to 500,< 100,–,–,"Cc1ccc(-c2c(C)noc2C)cc1N(CCCC1CCN(c2ccc3c(c2)C(=O)N(C2CCC(=O)NC2=O)C3)CC1)c1ccc(C2(C#N)CC2)cc1 (stereo not shown) [Compound 31, 1-(4-((5-(3,5-Dimethylisoxazol-4-yl)-2-methylphenyl)(3-(1-(2-(2,6-dioxopiperidin-3-yl)-3-oxoisoindolin-5-yl)piperidin-4-yl)propyl)amino)phenyl)cyclopropane-1-nitrile]",–
< 100,< 100,–,–,"Cc1ccc(-c2c(C)noc2C)cc1N(CCCOC1CN(c2ccc3c(c2)CN(C2CCC(=O)NC2=O)C3=O)C1)c1ccc(C2(C#N)CC2)cc1 (stereo not shown) [Compound 122, 1-(4-((5-(3,5-dimethylisoxazol-4-yl)-2-methylphenyl)(3-((1-(2-(2,6-dioxopiperidin-3-yl)-1-oxoisoindolin-5-yl)azetidin-3-yl)oxy)propyl)amino)phenyl)cyclopropane-1-nitrile]",–
< 100,< 100,–,–,"Cc1ccc(-c2c(C)noc2C)cc1N(CC1CCN(C2CN(c3ccc4c(c3)C(=O)N(C3CCC(=O)NC3=O)C4=O)C2)CC1)c1ccc(C2(C#N)CC2)cc1 (stereo not shown) [Compound 109, 1-(4-((5-(3,5-Dimethylisoxazol-4-yl)-2-methylphenyl)((1-(1-(2-(2,6-dioxopiperidin-3-yl)-1,3-dioxoisoindolin-5-yl)azetidin-3-yl)piperidin-4-yl)methyl)amino)phenyl)cyclopropanecarbonitrile]",–
501 to 2000,> 2000,–,–,"Cc1ccc(-c2c(C)noc2C)cc1N(CCCNc1cc2c(cc1F)CN(C1CCC(=O)NC1=O)C2=O)c1ccc(C2(C#N)CC2)cc1 (stereo not shown) [Compound 175, 1-(4-((5-(3,5-dimethylisoxazol-4-yl)-2-methylphenyl)(3-((2-(2,6-dioxopiperidin-3-yl)-6-fluoro-3-oxoisoindolin-5-yl)amino)propyl)amino)phenyl)cyclopropane-1-nitrile]",–
< 100,> 2000,–,–,"Cc1ccc(-c2c(C)noc2C)cc1N(CCCNc1cc2c(cc1F)C(=O)N(C1CCC(=O)NC1=O)C2)c1ccc(C2(C#N)CC2)cc1 (stereo not shown) [Compound 176, 1-(4-((5-(3,5-dimethylisoxazol-4-yl)-2-methylphenyl)(3-((2-(2,6-dioxopiperidin-3-yl)-6-fluoro-1-oxoisoindolin-5-yl)amino)propyl)amino)phenyl)cyclopropane-1-nitrile]",–
< 100,< 100,–,–,"Cc1ccc(-c2c(C)noc2C)cc1N(CCCCCCNc1ccc2c(c1)CN(C1CCC(=O)NC1=O)C2=O)c1ccc(C2(C#N)CC2)cc1 (stereo not shown) [Compound 61, 1-(4-((5-(3,5-dimethylisoxazol-4-yl)-2-methylphenyl)(6-((2-(2,6-dioxopiperidin-3-yl)-1-oxoisoindolin-5-yl)amino)hexyl)amino)phenyl)cyclopropane-1-nitrile]",–
